These results are taken from PubChem BioAssay AID1918937 (Molecular Pharmacology Branch, DTP, NCI, 2023).

“And” between values parts separate entries of the source, which are not always exact repeats. Identical values can stand only once. Bounds are passed on as bounds.

The subject of the assay is 521955-158-R2-J5-PDC complex spheroid viability. In words: Anticancer human tumor 521955-158-R2-J5-PDC patient-derived pancreatic carcinoma cell line growth inhibition. The following applies: for viability, T/C: stronger effect = lower value. An outline of the steps: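 Complex spheroids of tumor cells with HUVEC and human MSCs, exposed to iadademstat combined with other agents. Each agent tested in half-log steps from near clinical Cmax (else 10 microM top), DMSO ≤0.25%.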

Where [1] appears, read: curve of first compound, second compound 0.1 µM.
Setting [2] is: curve of first compound, second compound 0.316 µM.
Where [3] appears, read: curve of first compound, second compound 1 µM.
[4] abbreviates: curve of first compound, second compound 3.16 µM.
The mark [5] stands for this setting: curve of first compound, second compound 10 µM.
Setting [6] is: second compound 0.1 µM, first compound 0.0316 µM.
Where [7] appears, read: second compound 0.1 µM, first compound 0.1 µM.
Setting [8] is: second compound 0.1 µM, first compound 0.316 µM.
Setting [9] is: second compound 0.1 µM, first compound 1 µM.
[10] abbreviates: second compound 0.316 µM, first compound 0.0316 µM.
Where [11] appears, read: second compound 0.316 µM, first compound 0.1 µM.
Where [12] appears, read: second compound 0.316 µM, first compound 0.316 µM.
Where [13] appears, read: second compound 0.316 µM, first compound 1 µM.
[14] abbreviates: second compound 1 µM, first compound 0.0316 µM.
Where [15] appears, read: second compound 1 µM, first compound 0.1 µM.
Where [16] appears, read: second compound 1 µM, first compound 0.316 µM.
[17] abbreviates: second compound 1 µM, first compound 1 µM.
[18] abbreviates: second compound 3.16 µM, first compound 0.0316 µM.
Where [19] appears, read: second compound 3.16 µM, first compound 0.1 µM.
The mark [20] stands for this setting: second compound 3.16 µM, first compound 0.316 µM.
[21] abbreviates: second compound 3.16 µM, first compound 1 µM.
Where [22] appears, read: second compound 10 µM, first compound 0.0316 µM.
Where [23] appears, read: second compound 10 µM, first compound 0.1 µM.
[24] abbreviates: second compound 10 µM, first compound 0.316 µM.
Setting [25] is: second compound 10 µM, first compound 1 µM.
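Note: spheroids exposed to agents for seven days.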
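Throughout, for viability, T/C: percent of DMSO vehicle control luminescence viability.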

In the case of `CCN(c1cc(-c2ccc(CN3CCOCC3)cc2)cc(C(=O)NCc2c(C)cc(C)[nH]c2=O)c1C)C1CCOCC1` + NC1CC1c1ccc(-c2cccc(O)c2)cc1, the IC50 (usually the concentration that inhibits the measured activity by half) under setting [1] is greater than 3 µM; the IC50 under setting [2] was greater than 3 µM; the 50% inhibitory concentration (IC50) under setting [3] is greater than 3 µM; the IC50 under setting [4] was greater than 3 µM; the IC50 under setting [5] is greater than 3 µM. The viability, T/C (usually the result in the treated group divided by that in the control group, in per cent) (second compound 0.1 µM, first compound 0.00949 µM) is 98.8%; the viability, T/C (second compound 0.1 µM, first compound 0.03 µM) was 96.3%; the viability, T/C (second compound 0.1 µM, first compound 0.0949 µM) is 87.4%; the viability, T/C (second compound 0.1 µM, first compound 0.3 µM) was 82.1%; the viability, T/C (second compound 0.1 µM, first compound 0.949 µM) is 86.8%; the viability, T/C (second compound 0.1 µM, first compound 3 µM) was 72.3%. In addition, the viability, T/C is, setting by setting: (second compound 0.316 µM, first compound 0.00949 µM) 89%; (second compound 0.316 µM, first compound 0.03 µM) 85.2%; (second compound 0.316 µM, first compound 0.0949 µM) 82.4%; (second compound 0.316 µM, first compound 0.3 µM) 82.2%; (second compound 0.316 µM, first compound 0.949 µM) 82.2%; (second compound 0.316 µM, first compound 3 µM) 77.5%. The viability, T/C by setting is: (second compound 1 µM, first compound 0.00949 µM) 75.5%; (second compound 1 µM, first compound 0.03 µM) 88.3%; (second compound 1 µM, first compound 0.0949 µM) 88.4%; (second compound 1 µM, first compound 0.3 µM) 87.1%; (second compound 1 µM, first compound 0.949 µM) 79.8%; (second compound 1 µM, first compound 3 µM) 85.7%. Further, the viability, T/C is, setting by setting: (second compound 3.16 µM, first compound 0.00949 µM) 91.2%; (second compound 3.16 µM, first compound 0.03 µM) 91.6%; (second compound 3.16 µM, first compound 0.0949 µM) 92.4%; (second compound 3.16 µM, first compound 0.3 µM) 83.9%; (second compound 3.16 µM, first compound 0.949 µM) 70.9%; (second compound 3.16 µM, first compound 3 µM) 77.7%. The viability, T/C is, setting by setting: (second compound 10 µM, first compound 0.00949 µM) 83.4%; (second compound 10 µM, first compound 0.03 µM) 110%; (second compound 10 µM, first compound 0.0949 µM) 92.2%; (second compound 10 µM, first compound 0.3 µM) 82.7%; (second compound 10 µM, first compound 0.949 µM) 80.3%; (second compound 10 µM, first compound 3 µM) 76.7%.

For the molecule `CC(C)c1c(-c2ccccc2)nc2c(C#N)c[nH]n2c1=O` + NC1CCC(NC2CC2c2ccccc2)CC1, the half-maximal inhibitory concentration (IC50) reads like this: under setting [1], greater than 10 µM; under setting [2], greater than 10 µM; under setting [3], greater than 10 µM; under setting [4], greater than 10 µM; under setting [5], greater than 10 µM. In addition, the viability, T/C runs as follows: under setting [6], 87.4%; under setting [7], 89.5%; under setting [8], 88.8%; under setting [9], 84.7%; (second compound 0.1 µM, first compound 3.16 µM) 79%; (second compound 0.1 µM, first compound 10 µM) 68.2%. For the same molecule, the viability, T/C reads like this: under setting [10], 84.9%; under setting [11], 85.5%; under setting [12], 89.2%; under setting [13], 78.3%; (second compound 0.316 µM, first compound 3.16 µM) 70.9%; (second compound 0.316 µM, first compound 10 µM) 65%. Also, the viability, T/C is 86.3% under setting [14]; 83.6% under setting [15]; 89.4% under setting [16]; 81.7% under setting [17]; 76.3% (second compound 1 µM, first compound 3.16 µM); 62.9% (second compound 1 µM, first compound 10 µM). In addition, the viability, T/C is 90% under setting [18]; 86.7% under setting [19]; 89.1% under setting [20]; 85.1% under setting [21]; 74.2% (second compound 3.16 µM, first compound 3.16 µM); 59.6% (second compound 3.16 µM, first compound 10 µM). Also, the viability, T/C is, setting by setting: under setting [22], 87.8%; under setting [23], 84.3%; under setting [24], 80.7%; under setting [25], 79.2%; (second compound 10 µM, first compound 3.16 µM) 66.2%; (second compound 10 µM, first compound 10 µM) 54.5%.

With `CC1COCCN1c1cc(-c2ccnn2C)c2ccnc(-c3ccn[nH]3)c2n1` (stereo unspecified), the viability, T/C is, setting by setting: (compound 0.00316 µM) 10.8% and 14.6%; (compound 0.01 µM) 10.8% and 12.3%; (compound 0.0316 µM) 11.1% and 13%; (compound 0.1 µM) 18.1% and 21.3%; (compound 0.316 µM) 21.6% and 24.3%; (compound 1 µM) 12.5% and 17.1%. Besides, the IC50 (curve of compound) was less than 0.00316 µM.

With `NC1CCC(NC2CC2c2ccccc2)CC1` (stereo unspecified), the viability, T/C (compound 0.316 µM) was 92.2% [middle of 4 runs]. The concentration for half-maximal inhibition (IC50) (compound alone, run of 02/15/2022) was greater than 10 µM.

Take `CC1COCCN1c1cc(-c2ccnn2C)c2ccnc(-c3ccn[nH]3)c2n1` (stereo unspecified) + NC1CCC(NC2CC2c2ccccc2)CC1: the IC50 under setting [1] was less than 0.00316 µM; the IC50 under setting [2] was less than 0.00316 µM; the IC50 under setting [3] was less than 0.00316 µM; the IC50 under setting [4] was less than 0.00316 µM; the IC50 under setting [5] is less than 0.00316 µM. Further, the viability, T/C by setting is: (second compound 0.1 µM, first compound 0.00316 µM) 13.4%; (second compound 0.1 µM, first compound 0.01 µM) 12.4%; under setting [6], 15.4%; under setting [7], 22.6%; under setting [8], 21.1%; under setting [9], 8.33%. For the same molecule, the viability, T/C reads like this: (second compound 0.316 µM, first compound 0.00316 µM) 14.7%; (second compound 0.316 µM, first compound 0.01 µM) 18.1%; under setting [10], 16.6%; under setting [11], 26.2%; under setting [12], 26.8%; under setting [13], 10.4%. Also, the viability, T/C is 14.7% (second compound 1 µM, first compound 0.00316 µM); 14.4% (second compound 1 µM, first compound 0.01 µM); 16.7% under setting [14]; 21.9% under setting [15]; 27.5% under setting [16]; 8.96% under setting [17]. The viability, T/C runs as follows: (second compound 3.16 µM, first compound 0.00316 µM) 17.2%; (second compound 3.16 µM, first compound 0.01 µM) 15.2%; under setting [18], 17.5%; under setting [19], 23.5%; under setting [20], 28.7%; under setting [21], 8.47%. Also, the viability, T/C by setting is: (second compound 10 µM, first compound 0.00316 µM) 16.8%; (second compound 10 µM, first compound 0.01 µM) 16.9%; under setting [22], 16.7%; under setting [23], 24.8%; under setting [24], 29.1%; under setting [25], 7.2%.

On to `CC1COCCN1c1cc(C2(S(C)(=N)=O)CC2)nc(-c2ccnc3[nH]ccc23)n1` (stereo unspecified), for which the viability, T/C (compound 0.0316 µM) is 108% and 112%; the viability, T/C (compound 0.1 µM) was 102% and 100%; the viability, T/C (compound 0.316 µM) was 94.3% and 111%; the viability, T/C (compound 1 µM) is 13.1% and 18.6%; the viability, T/C (compound 3.16 µM) was 9.05% and 12.5%; the viability, T/C (compound 10 µM) was 13.5% and 17.8%. Further, the half-inhibitory concentration (IC50) (curve of compound) is 0.593 µM and 0.655 µM.
